Measured values as given in PubChem BioAssay AID248 (DTP/NCI, 2004).
Values joined by “and” are separate entries in the source; they are usually repeats but may differ in a detail not shown here. Equal values may be shown once. Inconclusive results and toxic doses are left out. Cut-off read from the data, not from the text of the source: active = T/C of 150% or more; inactive = T/C below 125%.

Test system: L1210 leukemia ip in BDF1 mice, survival T/C
Test: NCI In Vivo Anticancer Drug Screen. Data for tumor model L1210 Leukemia (intraperitoneal) in B6D2F1 (BDF1) mice
Details: endpoint: mean survival time, higher = longer survival
Method in brief: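 Each compound was tested against a transplantable tumor grown in mice. The endpoint was survival, with treated animals benchmarked against vehicle controls as a simple ratio.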

[1] = dose: 100.0 mg/kg/injection, schedule: Q04DX003 (ip), vehicle: saline with Tween-80
[2] = dose: 200.0 mg/kg/injection, schedule: Q04DX003 (ip), vehicle: saline with Tween-80
[3] = dose: 400.0 mg/kg/injection, schedule: Q04DX003 (ip), vehicle: saline with Tween-80
[4] = dose: 100.0 mg/kg/injection, schedule: Q01DX009 (ip), vehicle: Klucel (hydroxypropylcellulose) (HPC)
[5] = dose: 200.0 mg/kg/injection, schedule: Q01DX009 (ip), vehicle: Klucel (hydroxypropylcellulose) (HPC)
[6] = dose: 400.0 mg/kg/injection, schedule: Q01DX009 (ip), vehicle: Klucel (hydroxypropylcellulose) (HPC)
[7] = dose: 100.0 mg/kg/injection, schedule: Q01DX001 (ip), vehicle: carboxymethylcellulose (CMC)
[8] = dose: 200.0 mg/kg/injection, schedule: Q01DX001 (ip), vehicle: carboxymethylcellulose (CMC)
[9] = dose: 400.0 mg/kg/injection, schedule: Q01DX001 (ip), vehicle: carboxymethylcellulose (CMC)
[10] = dose: 100.0 mg/kg/injection, schedule: Q04DX002 (ip), vehicle: Klucel (hydroxypropylcellulose) (HPC)
[11] = dose: 100.0 mg/kg/injection, schedule: Q04DX002 (ip), vehicle: saline with Tween-80
[12] = dose: 200.0 mg/kg/injection, schedule: Q04DX002 (ip), vehicle: saline with Tween-80
[13] = dose: 400.0 mg/kg/injection, schedule: Q04DX002 (ip), vehicle: Klucel (hydroxypropylcellulose) (HPC)
[14] = dose: 400.0 mg/kg/injection, schedule: Q04DX002 (ip), vehicle: saline with Tween-80
[15] = dose: 100.0 mg/kg/injection, schedule: Q01DX009 (ip), vehicle: saline with Tween-80
[16] = dose: 200.0 mg/kg/injection, schedule: Q01DX009 (ip), vehicle: saline with Tween-80
[17] = dose: 100.0 mg/kg/injection, schedule: Q04DX003 (ip), vehicle: Klucel (hydroxypropylcellulose) (HPC)
[18] = dose: 200.0 mg/kg/injection, schedule: Q04DX003 (ip), vehicle: Klucel (hydroxypropylcellulose) (HPC)
[19] = dose: 400.0 mg/kg/injection, schedule: Q04DX003 (ip), vehicle: Klucel (hydroxypropylcellulose) (HPC)
[20] = dose: 400.0 mg/kg/injection, schedule: Q01DX009 (ip), vehicle: saline with Tween-80
[21] = dose: 200.0 mg/kg/injection, schedule: Q04DX002 (ip), vehicle: Klucel (hydroxypropylcellulose) (HPC)
[22] = dose: 50.0 mg/kg/injection, schedule: Q01DX009 (ip), vehicle: saline
[23] = dose: 100.0 mg/kg/injection, schedule: Q01DX001 (ip), vehicle: saline
[24] = dose: 200.0 mg/kg/injection, schedule: Q01DX001 (ip), vehicle: saline
[25] = dose: 100.0 mg/kg/injection, schedule: Q04DX003 (ip), vehicle: saline
[26] = dose: 200.0 mg/kg/injection, schedule: Q04DX003 (ip), vehicle: saline
[27] = dose: 400.0 mg/kg/injection, schedule: Q04DX003 (ip), vehicle: saline

Measured: T/C

CC(C)(c1ccc(O)cc1)c1ccc(O)cc1
inactive: [1] 96 % of control | [2] 87 % of control | [3] 91 % of control

O=C(CC(O)(C(F)(F)F)C(F)(F)F)c1ccc([N+](=O)[O-])cc1
inactive: dose: 50.0 mg/kg/injection, schedule: Q04DX003 (ip), vehicle: other 102 % of control | dose: 100.0 mg/kg/injection, schedule: Q04DX003 (ip), vehicle: other 100 % of control | dose: 200.0 mg/kg/injection, schedule: Q04DX003 (ip), vehicle: other 100 % of control | dose: 400.0 mg/kg/injection, schedule: Q04DX003 (ip), vehicle: other 104 % of control

Cc1ccc(NC(=S)N(CCC#N)C(C)C)cc1C
inactive: [4] 110 % of control | [5] 106 % of control | [6] 103 % of control

O=C1NC(Cc2ccc(O)cc2)C(=O)N1c1ccccc1O (configuration not stated)
inactive: [7] 96 % of control | [8] 96 % of control | [9] 94 % of control

S=C(NP(=S)(NC(=S)N1CC1)NC(=S)N1CC1)N1CC1
inactive: [7] 95 % of control | [8] 91 % of control | [9] 90 % of control

COC1OC(CCl)C(Cl)C(OS(=O)(=O)c2ccc(C)cc2)C1OS(=O)(=O)c1ccc(C)cc1 (configuration not stated)
inactive: [10] 100 % of control | [11] 90 % of control | [12] 101 % of control | [13] 94 % of control | [14] 93 % of control

CCOc1ccc(OC/C=C(\C)CCC=C(C)C)cc1
inactive: [15] 103 % of control | [11] 101 % of control | [16] 92 % of control | [12] 94 % of control | [14] 94 % of control

CCCCCC(/C=N/N=C(N)N)=N\N=C(N)N
inactive: dose: 15.0 mg/kg/injection, schedule: Q01DX Z (ip), vehicle: carboxymethylcellulose (CMC) 98 % of control | dose: 30.0 mg/kg/injection, schedule: Q01DX Z (ip), vehicle: carboxymethylcellulose (CMC) 97 % of control | dose: 30.0 mg/kg/injection, schedule: Q01DX Z (oral), vehicle: carboxymethylcellulose (CMC) 98 % of control | dose: 60.0 mg/kg/injection, schedule: Q01DX Z (ip), vehicle: carboxymethylcellulose (CMC) 95 % of control | dose: 60.0 mg/kg/injection, schedule: Q01DX Z (oral), vehicle: carboxymethylcellulose (CMC) 87 % of control | dose: 120.0 mg/kg/injection, schedule: Q01DX Z (oral), vehicle: carboxymethylcellulose (CMC) 91 % of control | dose: 240.0 mg/kg/injection, schedule: Q01DX Z (oral), vehicle: carboxymethylcellulose (CMC) 95 % of control

CCC(O)CNC1CCCCC1 (configuration not stated)
inactive: dose: 75.0 mg/kg/injection, schedule: Q01DX001 (ip), vehicle: saline 98 % of control | dose: 150.0 mg/kg/injection, schedule: Q01DX001 (ip), vehicle: saline 98 % of control

CCCCCCCCCCCCCC(=O)O
inactive: [17] 92 % of control | [18] 94 % of control | [19] 95 % of control

NC(=O)NCc1ccc(CNC(N)=O)cc1
inactive: [11] 98 % of control | [12] 98 % of control | [14] 115 % of control

CSc1ccc(NC(=O)Oc2cc3ccccc3cc2C(=O)Nc2ccc(Cl)cc2)cc1
inactive: [15] 99 % of control and 86 % of control | [11] 88 % of control | [1] 90 % of control | [16] 111 % of control and 89 % of control | [12] 91 % of control and 92 % of control | [2] 92 % of control | [20] 95 % of control and 96 % of control | [14] 94 % of control and 103 % of control | [3] 87 % of control

CC(=O)c1ccccc1C(C)c1ccc(C)c2ccccc12 (configuration not stated)
inactive: [10] 120 % of control | [21] 97 % of control | [13] 104 % of control

CCCC(C)C(=O)Nc1cccc(OC(=O)N(C)C)c1 (configuration not stated)
inactive: [1] 95 % of control | [2] 96 % of control | [3] 93 % of control

Cc1ccc(NC(=O)OCCSC(=O)COc2ccc(Cl)cc2Cl)cc1
inactive: [15] 93 % of control | [16] 98 % of control | [20] 104 % of control

CC1(C)OC(=O)C2CCCCC21 (configuration not stated)
inactive: dose: 25.0 mg/kg/injection, schedule: Q01DX009 (ip), vehicle: saline 89 % of control | [22] 93 % of control | [23] 97 % of control | [24] 90 % of control

NC(N)=N/N=C/c1ccccc1O
inactive: dose: 15.0 mg/kg/injection, schedule: Q01DX Z (ip), vehicle: saline 98 % of control and 91 % of control | dose: 31.0 mg/kg/injection, schedule: Q01DX Z (ip), vehicle: saline 87 % of control and 91 % of control | dose: 63.0 mg/kg/injection, schedule: Q01DX Z (ip), vehicle: saline 87 % of control | dose: 125.0 mg/kg/injection, schedule: Q01DX Z (ip), vehicle: saline 87 % of control

CC(C)N(CCC#N)CN1C(=O)c2ccccc2C1=O
inactive: [4] 94 % of control | [5] 91 % of control

CNC(=O)Oc1ccc(C=Nc2cccc(Cl)c2)cc1
inactive: [10] 98 % of control | [21] 98 % of control | [13] 98 % of control

Cc1cc(NC(=O)Nc2ccccc2C)no1
inactive: [15] 89 % of control | [1] 97 % of control | [16] 93 % of control | [2] 101 % of control | [20] 91 % of control | [3] 97 % of control

C[n+]1csc2ccccc21
inactive: [23] 108 % of control | [24] 103 % of control | dose: 400.0 mg/kg/injection, schedule: Q01DX001 (ip), vehicle: saline 103 % of control

O=S(=O)(O)SCCNC1CCC(NCCSS(=O)(=O)O)CC1 (configuration not stated)
inactive: [25] 105 % of control | [26] 116 % of control | [27] 114 % of control

CC1(C(=O)O)CCC2(C)CCC3(C)C(=CC(=O)C4C5(C)CCC(OC6OC(C(=O)O)C(O)C(O)C6OC6OC(C(=O)O)C(O)C(O)C6O)C(C)(C)C5CCC43C)C2C1 (configuration not stated)
inactive: [22] 94 % of control | dose: 100.0 mg/kg/injection, schedule: Q01DX009 (ip), vehicle: saline 91 % of control and 107 % of control and 100 % of control | [25] 100 % of control | dose: 200.0 mg/kg/injection, schedule: Q01DX009 (ip), vehicle: saline 91 % of control and 90 % of control and 94 % of control | [26] 105 % of control | dose: 400.0 mg/kg/injection, schedule: Q01DX009 (ip), vehicle: saline 98 % of control and 93 % of control | [27] 103 % of control

O=C(OCCCCCCCOC(=O)c1cccc([N+](=O)[O-])c1)c1cccc([N+](=O)[O-])c1
inactive: dose: 100.0 mg/kg/injection, schedule: Q01DX001 (ip), vehicle: other 98 % of control | dose: 200.0 mg/kg/injection, schedule: Q01DX001 (ip), vehicle: other 101 % of control | dose: 400.0 mg/kg/injection, schedule: Q01DX001 (ip), vehicle: other 107 % of control

CCc1cc2oc(C)c(C)c2c(N=Nc2ccccc2[N+](=O)[O-])c1O
inactive: [10] 96 % of control | [21] 96 % of control | [13] 93 % of control

CCCCCCCCCCCCCCCC(=O)NNC(C)C
inactive: dose: 25.0 mg/kg/injection, schedule: Q01DX009 (ip), vehicle: Klucel (hydroxypropylcellulose) (HPC) 94 % of control | dose: 25.0 mg/kg/injection, schedule: Q04DX003 (ip), vehicle: Klucel (hydroxypropylcellulose) (HPC) 94 % of control | dose: 50.0 mg/kg/injection, schedule: Q01DX009 (ip), vehicle: Klucel (hydroxypropylcellulose) (HPC) 95 % of control | dose: 50.0 mg/kg/injection, schedule: Q04DX003 (ip), vehicle: Klucel (hydroxypropylcellulose) (HPC) 91 % of control | [4] 86 % of control | [17] 105 % of control | [5] 91 % of control | [18] 89 % of control | [6] 92 % of control | [19] 89 % of control
